Assay results reported in US8053553B2, “Targeting host proteinases as a therapeutic strategy against viral and bacterial pathogens” (Socpra Sciences Sante Et Humaines, priority 2007, dated 2011).
Non-standard residues stand in square brackets, D forms with d. Residues, ends and D or L forms follow the SMILES beside them. Sar = CNCC(=O)O

Target: T1, furin (Homo sapiens, UniProt P09958)
T1 construct: made in house; host or cells: Drosophila S2 cells (Invitrogen expression system)
Test: biochemical
Settings: furin, Pyr-RTKR-AMC substrate; alanine scanning mutagenesis of the H5 furin cleavage sequence (Table 2); read-out: Ki

T1 sequence (P09958 108-794 limits assumed): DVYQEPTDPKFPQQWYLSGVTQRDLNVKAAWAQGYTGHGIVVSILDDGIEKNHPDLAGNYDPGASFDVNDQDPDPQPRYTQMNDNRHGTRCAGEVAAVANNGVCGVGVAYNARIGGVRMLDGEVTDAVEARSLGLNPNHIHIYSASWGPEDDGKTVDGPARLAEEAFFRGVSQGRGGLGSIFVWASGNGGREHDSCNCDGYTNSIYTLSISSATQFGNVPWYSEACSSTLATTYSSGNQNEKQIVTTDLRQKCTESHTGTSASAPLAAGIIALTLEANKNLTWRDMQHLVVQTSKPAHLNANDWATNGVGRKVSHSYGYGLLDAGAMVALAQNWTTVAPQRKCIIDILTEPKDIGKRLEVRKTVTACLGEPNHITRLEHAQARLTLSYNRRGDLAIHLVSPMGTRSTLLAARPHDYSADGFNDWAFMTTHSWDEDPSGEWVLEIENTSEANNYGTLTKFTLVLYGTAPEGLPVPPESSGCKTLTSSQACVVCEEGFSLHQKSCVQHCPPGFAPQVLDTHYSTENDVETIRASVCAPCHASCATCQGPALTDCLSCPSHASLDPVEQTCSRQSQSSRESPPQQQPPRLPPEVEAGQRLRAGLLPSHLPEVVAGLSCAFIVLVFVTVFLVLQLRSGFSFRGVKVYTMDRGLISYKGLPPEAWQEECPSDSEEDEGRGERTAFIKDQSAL

| SMILES | Ki |
| --- | --- |
| CC(C)[C@H](NC(=O)[C@H](CCCNC(=N)N)NC(=O)[C@H](C)NC(=O)[C@H](C)NC(=O)[C@H](CCCNC(=N)N)NC(=O)[C@H](CCCNC(=N)N)NC(=O)[C@H](CCCNC(=N)N)NC(=O)[C@H](CCC(=O)O)NC(=O)[C@H](CCCNC(=N)N)NC(=O)[C@@H]1CCCN1C(=O)[C@@H](N)[C@@H](C)O)C(N)=O (H-TPRERRRAARV-NH2) | > 100 nM |
| C[C@H](NC(=O)[C@H](C)NC(=O)[C@H](CCCNC(=N)N)NC(=O)[C@H](CCCNC(=N)N)NC(=O)[C@H](CCCNC(=N)N)NC(=O)[C@H](CCC(=O)O)NC(=O)[C@H](CCCNC(=N)N)NC(=O)[C@@H]1CCCN1C(=O)[C@@H](N)[C@@H](C)O)C(=O)N[C@@H](CCCNC(=N)N)C(=O)NCC(N)=O | > 100 nM |
| C[C@H](NC(=O)[C@H](C)NC(=O)[C@H](CCC(=O)O)NC(=O)[C@H](CCCNC(=N)N)NC(=O)[C@@H]1CCCN1C(=O)[C@@H](N)[C@@H](C)O)C(=O)N[C@@H](C)C(=O)N[C@@H](CCCCN)C(=O)N[C@@H](CCCCN)C(=O)N[C@@H](CCCNC(=N)N)C(=O)NCC(N)=O (H-TPREAAAKKRG-NH2) | > 100 nM |
| C[C@H](NC(=O)[C@H](C)NC(=O)[C@@H]1CCCN1C(=O)[C@@H](N)[C@@H](C)O)C(=O)N[C@@H](CCCNC(=N)N)C(=O)N[C@@H](CCCNC(=N)N)C(=O)N[C@@H](CCCNC(=N)N)C(=O)N[C@@H](CCCCN)C(=O)N[C@@H](CCCCN)C(=O)N[C@@H](CCCNC(=N)N)C(=O)N(C)CC(N)=O (H-TPAARRRKKR[Sar]-NH2) | > 100 nM |
| CC(C)[C@H](NC(=O)[C@H](CCCNC(=N)N)NC(=O)[C@H](CCCCN)NC(=O)[C@H](CCCCN)NC(=O)[C@H](CCCNC(=N)N)NC(=O)[C@H](CCCNC(=N)N)NC(=O)[C@H](CCCNC(=N)N)NC(=O)[C@H](CCC(=O)O)NC(=O)[C@H](CCCNC(=N)N)NC(=O)[C@@H]1CCCN1C(=O)[C@H](C)N)C(N)=O (H-APRERRRKKRV-NH2) | > 100 nM |
| CC(C)[C@H](NC(=O)[C@H](CCCNC(=N)N)NC(=O)[C@H](CCCCN)NC(=O)[C@H](CCCCN)NC(=O)[C@H](CCCNC(=N)N)NC(=O)[C@H](CCCNC(=N)N)NC(=O)[C@H](C)NC(=O)[C@H](C)NC(=O)[C@H](CCCNC(=N)N)NC(=O)[C@@H]1CCCN1C(=O)[C@@H](N)[C@@H](C)O)C(N)=O (H-TPRAARRKKRV-NH2) | > 100 nM |
| C[C@H](NC(=O)[C@H](C)NC(=O)[C@H](CCCNC(=N)N)NC(=O)[C@@H]1CCCN1C(=O)[C@@H](N)[C@@H](C)O)C(=O)N[C@@H](CCCNC(=N)N)C(=O)N[C@@H](CCCNC(=N)N)C(=O)N[C@@H](CCCCN)C(=O)N[C@@H](CCCCN)C(=O)N[C@@H](CCCNC(=N)N)C(=O)N(C)CC(N)=O (H-TPRAARRKKR[Sar]-NH2) | > 100 nM |
| C[C@H](NC(=O)[C@H](CCCNC(=N)N)NC(=O)[C@@H]1CCCN1C(=O)[C@@H](N)[C@@H](C)O)C(=O)N[C@@H](CCCNC(=N)N)C(=O)N[C@@H](CCCNC(=N)N)C(=O)N[C@@H](CCCNC(=N)N)C(=O)N[C@@H](CCCCN)C(=O)N[C@@H](CCCCN)C(=O)N[C@@H](CCCNC(=N)N)C(N)=O | 138 nM |
| C[C@H](N)C(=O)N[C@@H](C)C(=O)N[C@@H](CCCNC(=N)N)C(=O)N[C@@H](CCC(=O)O)C(=O)N[C@@H](CCCNC(=N)N)C(=O)N[C@@H](CCCNC(=N)N)C(=O)N[C@@H](CCCNC(=N)N)C(=O)N[C@@H](CCCCN)C(=O)N[C@@H](CCCCN)C(=O)N[C@@H](CCCNC(=N)N)C(N)=O (H-AARERRRKKR-NH2) | > 100 nM |
| C[C@H](NC(=O)[C@H](CCCCN)NC(=O)[C@H](CCCNC(=N)N)NC(=O)[C@H](CCCNC(=N)N)NC(=O)[C@H](CCCNC(=N)N)NC(=O)[C@H](CCC(=O)O)NC(=O)[C@H](CCCNC(=N)N)NC(=O)[C@@H]1CCCN1C(=O)[C@@H](N)[C@@H](C)O)C(=O)N[C@@H](C)C(=O)N(C)CC(N)=O (H-TPRERRRKAA[Sar]-NH2) | > 100 nM |
| C[C@H](NC(=O)[C@H](CCC(=O)O)NC(=O)[C@H](CCCNC(=N)N)NC(=O)[C@@H]1CCCN1C(=O)[C@@H](N)[C@@H](C)O)C(=O)N[C@@H](CCCNC(=N)N)C(=O)N[C@@H](CCCNC(=N)N)C(=O)N[C@@H](CCCCN)C(=O)N[C@@H](CCCCN)C(=O)N[C@@H](CCCNC(=N)N)C(N)=O (H-TPREARRKKR-NH2) | > 100 nM |
| C[C@H](NC(=O)[C@H](C)NC(=O)[C@H](CCCCN)NC(=O)[C@H](CCCNC(=N)N)NC(=O)[C@H](CCCNC(=N)N)NC(=O)[C@H](CCCNC(=N)N)NC(=O)[C@H](CCC(=O)O)NC(=O)[C@H](CCCNC(=N)N)NC(=O)[C@@H]1CCCN1C(=O)[C@@H](N)[C@@H](C)O)C(=O)NCC(N)=O (H-TPRERRRKAAG-NH2) | > 100 nM |

Same assay, conditions: furin, Pyr-RTKR-AMC substrate; optimization of the inhibitory peptides (Table 3); read-out: Ki

| SMILES | Ki |
| --- | --- |
| C[C@@H](O)[C@H](N)C(=O)N1CCC[C@H]1C(=O)N[C@@H](CCC(N)=O)C(=O)N[C@@H](CCCNC(=N)N)C(=O)NCC(=O)N[C@@H](CCCNC(=N)N)C(=O)N[C@@H](CCCNC(=N)N)C(=O)N[C@@H](CCCNC(=N)N)C(=O)N[C@@H](CCCCN)C(=O)N[C@@H](CCCCN)C(=O)N[C@@H](CCCNC(=N)N)C(=O)NCC(N)=O (H-TPQRGRRRKKRG-NH2) | > 100 nM |
| C[C@@H](O)[C@H](N)C(=O)N1CCC[C@H]1C(=O)N[C@@H](CCC(N)=O)C(=O)N[C@@H](CCCNC(=N)N)C(=O)N1CCC[C@H]1C(=O)N[C@@H](CCCNC(=N)N)C(=O)N[C@@H](CCCNC(=N)N)C(=O)N[C@@H](CCCNC(=N)N)C(=O)N[C@@H](CCCCN)C(=O)N[C@@H](CCCCN)C(=O)N[C@@H](CCCNC(=N)N)C(=O)NCC(N)=O (H-TPQRPRRRKKRG-NH2) | > 100 nM |
| C[C@H](NC(=O)[C@H](CCCNC(=N)N)NC(=O)[C@H](CCC(N)=O)NC(=O)[C@@H]1CCCN1C(=O)[C@@H](N)[C@@H](C)O)C(=O)N[C@@H](CCCNC(=N)N)C(=O)N[C@@H](CCCNC(=N)N)C(=O)N[C@@H](CCCNC(=N)N)C(=O)N[C@@H](CCCCN)C(=O)N[C@@H](CCCCN)C(=O)N[C@@H](CCCNC(=N)N)C(=O)N[C@H](CCCNC(=N)N)C(N)=O (H-TPQRARRRKKR[dR]-NH2) | > 100 nM |
| CSC[C@H](NC(=O)[C@H](CCCNC(=N)N)NC(=O)[C@H](CCCCN)NC(=O)[C@H](CCCCN)NC(=O)[C@H](CCCNC(=N)N)NC(=O)[C@H](CCCNC(=N)N)NC(=O)[C@H](CCCNC(=N)N)NC(=O)[C@H](C)NC(=O)[C@H](CCCNC(=N)N)NC(=O)[C@H](CCC(N)=O)NC(=O)[C@@H]1CCCN1C(=O)[C@@H](N)[C@@H](C)O)C(N)=O (H-TPQRARRRKKRC(Me)-NH2) | 93 nM |
| C[C@@H](O)[C@H](N)C(=O)N1CCC[C@H]1C(=O)N[C@@H](CCC(N)=O)C(=O)N[C@@H](CCCNC(=N)N)C(=O)NCCC(=O)N[C@@H](CCCNC(=N)N)C(=O)N[C@@H](CCCNC(=N)N)C(=O)N[C@@H](CCCNC(=N)N)C(=O)N[C@@H](CCCCN)C(=O)N[C@@H](CCCCN)C(=O)N[C@@H](CCCNC(=N)N)C(=O)NCC(N)=O [TPQR1RRRKKRG] | > 100 nM |
| CSCC[C@H](NC(=O)[C@H](CCCNC(=N)N)NC(=O)[C@H](CCC(N)=O)NC(=O)[C@@H]1CCCN1C(=O)[C@@H](N)[C@@H](C)O)C(=O)N[C@@H](CCCNC(=N)N)C(=O)N[C@@H](CCCNC(=N)N)C(=O)N[C@@H](CCCNC(=N)N)C(=O)N[C@@H](CCCCN)C(=O)N[C@@H](CCCCN)C(=O)N[C@@H](CCCNC(=N)N)C(=O)NCC(N)=O | > 100 nM |
| C[C@H](NC(=O)[C@H](CCCNC(=N)N)NC(=O)[C@H](CCC(N)=O)NC(=O)[C@@H]1CCCN1C(=O)[C@@H](N)[C@@H](C)O)C(=O)N[C@@H](CCCNC(=N)N)C(=O)N[C@@H](CCCNC(=N)N)C(=O)N[C@@H](CCCNC(=N)N)C(=O)N[C@@H](CCCCN)C(=O)N[C@@H](CCCCN)C(=O)N[C@@H](CCCNC(=N)N)C(=O)N[C@@H](CS)C(N)=O (H-TPQRARRRKKRC-NH2) | > 100 nM |
